Where two headings read alike, the source gives them in different places.
Key:
HIV-1LAV-BRU 1 = HIV-1LAV-BRU 1 replication in CEM13 cells (HIV antigens by solid phase immunoassay); format: cell-based; details: for IC50: Human immunodeficiency virus 1, CEM13 cells
[1] = test system: human sperm / zona-free hamster oocytes; test: Hamster oocyte penetration assay with capacitated human sperm; format: cell-based; details: 200 micromoles per l; 30 min pretreatment of sperm and oocytes
Protocol: The activity of Ajoene in the hamster oocyte penetration assay was tested. This assay is routinely used to test the ability of capacitated human sperm to penetrate oocytes.
To obtain oocytes, mature hamsters (on day 1 of the estrous cycle) were injected intraperitoneally with 40 International Units (IU) pregnant mare serum gonadotropin (PMSG), followed by 40 IU human chorionic gonadotropin (HCG) 55 hours late. After 16 hours, the animals were sacrificed by intracardiac injection of 0.1 ml T61 (euthanizing agent), the oviducts were removed, and the cumulus mass was collected. Cumulus cells were removed by hyaluronidase treatment, and the freed oocytes were transferred into a watchglass containing 3 ml Biggers-Whitter-Whittingham (BWW) medium supplemented with human serum albumin (HSA) (BWW/HSA; pH 7.5). […]
Human sperm was from a donor with known fertility (No. 113). […] A small portion of the original sample was analyzed (computer-assisted sperm analysis) using the Cell-Soft package. […] The swim-up was collected (about 0.5 ml), the cells were counted (Makler chamber), and their motility determined (%). […] Thereafter, motility and cell density were determined once again, and the sample was divided into three equal portions, each to be subjected to appropriate treatment. […]

VLA-4 (CS-1) = test: VLA-4-dependent adhesion of Jurkat and MV3 cells to CS-1; format: cell-based, human; details: in this concentration range
Protocol: Microtiter plates were coated with ligands of the integrin VLA-4, i.e., recombinant human VCAM-1 (500 nanograms per well) or the fragment of connective segment of human fibronectin (CS-1), covalently attached to ovalbumin (5 micrograms per well) by overnight incubation (4° C.) with solutions of the proteins in phosphate-buffered saline (PBS). The plates were blocked with 1% bovine serum albumin (BSA) in Hanks' buffered salt solution (HBSS-BSA). The cells (Jurkat or human melanoma MV3) were labeled with the fluorescent dye 5-chloromethylfluorescein diacetate (CMFDA) and introduced into the wells of the plates (10^5 cells per well) together with varying amounts of Ajoene. After incubation at 37° C. for 1 h, the unbound cells were removed by aspiration and the wells washed four times with HBSS-BSA. Thereafter, the bound cells were lysed with 0.5% Triton X-100, and the fluorescence was measured using a Cytofluor 2300 plate reader. The number of adherent cells was calculated from a standard dilution curve of Triton X-100 lysates of the CMFDA-labeled cells.

platelets (GP IIb/IIIa) = test: Platelet aggregation in platelet-rich plasma (turbidimetric); format: cell-based; details: 1:1 mixture of E- and Z-stereoisomers, read-out: IC50 for inhibition of platelet aggregation in PRP
Protocol: Platelet aggregation was measured turbidimetrically on a standard platelet aggregometer equipped with a recorder. Samples of platelet-rich plasma (PRP) were standardized with respect to the cell density (3×10^8per ml); maximal light transmission (LT) was calibrated with platelet-poorplasma (PPP). Aliquots of PRP (0.25 ml in glass cuvettes) were stirred in the cell of the device (1000 rpm, 37° C.) with Ajoene (0-100 micromoles per liter final concentration) for 1 min., followed by addition of the aggregation stimuli. (Unless specified otherwise, all the experiments described in this Application were performed with Ajoene that represented a 1:1 mixture of E- and Z-stereoisomers.) LT increments were traced for 5 min. Maximal rate of aggregation was derived from the slope of each curve; IC50 for Ajoene was determined by a method such as that described in Vrzheshch, et al., Cell Response Kinetics: the Phenomenon of Supercooperativity in Aggregation of Human Platelets, 66 Thrombos. Res. 537, 1992.
The requirement of integrins for the formation of cell-to-cell contacts in each of these systems has long been established. It is known that in platelets the relevant integrin is GP IIb/IIIa (β3). […]

In the case of `C=CCSSC=CC[S+]([O-])CC=C` (stereo not drawn) [Ajoene, 4,5,9-trithiadodeca-1,6,11-triene-9-oxide], the “inhibition of HIV replication, stepwise addition” value (HIV-1LAV-BRU 1; 50 nanomoles per liter per 12 h, total 0.25 micromoles per liter, m.o.i. 0.1, 72 h) is reported as 30%, the IC50 (HIV-1LAV-BRU 1; HIV-1Lav-BRU1, read-out: IC50 of HIV replication (FIG. 1, curve 2)) is reported as about 5 µM and the IC50 (HIV-1LAV-BRU 1; m.o.i. 0.1, 72 h, read-out: IC50 for HIV-1LAV-BRU 1 replication) is reported as about 5 µM. For the same compound, the “Penetration (penetrated oocytes / total oocytes)” value [1] was 0%, the “inhibition of adhesion to CS-1” value (VLA-4 (CS-1)) was “no inhibition of adhesion to CS-1 could be detected” and the IC50 (platelets (GP IIb/IIIa)) was about 50 µM.

Source: patent publication US6177475A, “Methods of using integrin modulators for treatment of inflammation” (priority 1997, dated 2001)
